Reference: ChEMBL document CHEMBL1201862, “PubChem BioAssay data set” (2004)
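Five concentrations, 48 hours, 96-well plates. GI50: concentration for 50% inhibition of growth.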 Active and inactive are the calls of the source. Rule as the data show it: active = GI50 up to about 1.1 µM and inactive = higher.

Key:
Assay in all cases: NCI anticancer screen, dose series, 48 h
COLO 205 = tested on: COLO 205
A498 = tested on: A498
MDA-MB-231 = tested on: MDA-MB-231
Malme-3M = tested on: Malme-3M
SN12C = tested on: SN12C
SK-MEL-2 = tested on: SK-MEL-2
SK-MEL-28 = tested on: SK-MEL-28
NCI-H226 = tested on: NCI-H226
HCT-15 = tested on: HCT-15
UACC-62 = tested on: UACC-62
UO-31 = tested on: UO-31
HCT-116 = tested on: HCT-116
MDA-MB-435 = tested on: MDA-MB-435
OVCAR-5 = tested on: OVCAR-5
SF-268 = tested on: SF-268
SF-295 = tested on: SF-295
PC-3 = tested on: PC-3
OVCAR-4 = tested on: OVCAR-4
NCI-H460 = tested on: NCI-H460
786-0 = tested on: 786-0
DU-145 = tested on: DU-145
OVCAR-3 = tested on: OVCAR-3
KM12 = tested on: KM12
HOP-62 = tested on: HOP-62
A549 = tested on: A549
IGROV-1 = tested on: IGROV-1
SK-OV-3 = tested on: SK-OV-3
LOX IMVI = tested on: LOX IMVI
TK-10 = tested on: TK-10
Hs-578T = tested on: Hs-578T
HT-29 = tested on: HT-29
K562 = tested on: K562
ACHN = tested on: ACHN
EKVX = tested on: EKVX
HOP-92 = tested on: HOP-92
UACC-257 = tested on: UACC-257
RXF 393 = tested on: RXF 393
NCI/ADR-RES = tested on: NCI/ADR-RES
MDA-N = tested on: MDA-N
U-251 = tested on: U-251
SK-MEL-5 = tested on: SK-MEL-5
SNB-75 = tested on: SNB-75
NCI-H23 = tested on: NCI-H23
M14 = tested on: M14
SNB-19 = tested on: SNB-19
CCRF-CEM = tested on: CCRF-CEM
T47D = tested on: T47D
SF-539 = tested on: SF-539
HL-60 = tested on: HL-60
MOLT-4 = tested on: MOLT-4
BT-549 = tested on: BT-549
MCF7 = tested on: MCF7
CAKI-1 = tested on: CAKI-1
RPMI-8226 = tested on: RPMI-8226
SW-620 = tested on: SW-620
OVCAR-8 = tested on: OVCAR-8
HCC 2998 = tested on: HCC 2998
NCI-H522 = tested on: NCI-H522

How did the GI50 (COLO 205) turn out when CC1=C[C@@H]2Cc3nc4cc(Cl)ccc4c(N)c3[C@H](C1)C2 was run?
The GI50 was 1.48 µM (inactive).

What about the GI50 (A498) of the same compound?
Its GI50 is 11.2 µM (inactive).

And the GI50 (MDA-MB-231)?
Its GI50 is 11.6 µM (inactive).

And the GI50 (Malme-3M)?
Its GI50 is 12 µM (inactive).

And the GI50 (SN12C)?
Its GI50 is 12.4 µM (inactive).

What about the GI50 (SK-MEL-2) of the same compound?
Its GI50 is 14.7 µM (inactive).

What about the GI50 (SK-MEL-28) of the same compound?
The GI50 was 12.3 µM (inactive).

What about the GI50 (NCI-H226) of the same compound?
The GI50 was 8.38 µM (inactive).

What about the GI50 (HCT-15) of the same compound?
Its GI50 is 7 µM.

What about the GI50 (UACC-62) of the same compound?
The GI50 was 14.6 µM (inactive).

What about the GI50 (UO-31) of the same compound?
The GI50 was 5.06 µM (inactive).

What about the GI50 (HCT-116) of the same compound?
Its GI50 is 2.96 µM (inactive).

What about the GI50 (MDA-MB-435) of the same compound?
The GI50 was 10.9 µM (inactive).

And the GI50 (OVCAR-5)?
Its GI50 is 4.28 µM (inactive).

And the GI50 (SF-268)?
Its GI50 is 12.5 µM (inactive).

What about the GI50 (SF-295) of the same compound?
The GI50 was 6.17 µM (inactive).

What about the GI50 (PC-3) of the same compound?
Its GI50 is 12.5 µM (inactive).

What about the GI50 (OVCAR-4) of the same compound?
Its GI50 is 3.99 µM (inactive).

What about the GI50 (NCI-H460) of the same compound?
Its GI50 is 9.02 µM (inactive).

And the GI50 (786-0)?
The GI50 was 6.03 µM (inactive).

What about the GI50 (DU-145) of the same compound?
The GI50 was 12.9 µM (inactive).

And the GI50 (OVCAR-3)?
Its GI50 is 10.4 µM (inactive).

And the GI50 (KM12)?
The GI50 was 7.6 µM (inactive).

And the GI50 (HOP-62)?
Its GI50 is 11.2 µM (inactive).

What about the GI50 (A549) of the same compound?
Its GI50 is 12.6 µM (inactive).

And the GI50 (IGROV-1)?
The GI50 was 1.76 µM (inactive).

What about the GI50 (SK-OV-3) of the same compound?
The GI50 was 12 µM (inactive).

What about the GI50 (LOX IMVI) of the same compound?
Its GI50 is 5.38 µM (inactive).

And the GI50 (TK-10)?
The GI50 was 5.78 µM (inactive).

And the GI50 (Hs-578T)?
The GI50 was 2.42 µM (inactive).

What about the GI50 (HT-29) of the same compound?
Its GI50 is 2.68 µM (inactive).

And the GI50 (K562)?
Its GI50 is 2.71 µM (inactive).

What about the GI50 (ACHN) of the same compound?
The GI50 was 10.6 µM (inactive).

And the GI50 (EKVX)?
The GI50 was 3.32 µM (inactive).

And the GI50 (HOP-92)?
Its GI50 is 0.685 µM (active).

What about the GI50 (UACC-257) of the same compound?
The GI50 was 2.02 µM (inactive).

What about the GI50 (RXF 393) of the same compound?
Its GI50 is 5.42 µM (inactive).

What about the GI50 (NCI/ADR-RES) of the same compound?
Its GI50 is 11.7 µM (inactive).

What about the GI50 (MDA-N) of the same compound?
The GI50 was 15.5 µM (inactive).

What about the GI50 (U-251) of the same compound?
The GI50 was 13.4 µM (inactive).

And the GI50 (SK-MEL-5)?
Its GI50 is 2.84 µM (inactive).

And the GI50 (SNB-75)?
The GI50 was 4.97 µM (inactive).

And the GI50 (NCI-H23)?
Its GI50 is 8.22 µM (inactive).

And the GI50 (M14)?
The GI50 was 4.57 µM (inactive).

And the GI50 (SNB-19)?
Its GI50 is 11.8 µM (inactive).

What about the GI50 (CCRF-CEM) of the same compound?
The GI50 was 12.2 µM (inactive).

And the GI50 (T47D)?
Its GI50 is 12.3 µM (inactive).

What about the GI50 (SF-539) of the same compound?
The GI50 was 12.4 µM (inactive).

What about the GI50 (HL-60) of the same compound?
The GI50 was 15.3 µM (inactive).

And the GI50 (MOLT-4)?
The GI50 was 2.07 µM (inactive).

And the GI50 (BT-549)?
The GI50 was 16.2 µM (inactive).

What about the GI50 (MCF7) of the same compound?
Its GI50 is 10 µM (inactive).

And the GI50 (CAKI-1)?
Its GI50 is 3.89 µM (inactive).

What about the GI50 (RPMI-8226) of the same compound?
Its GI50 is 3.66 µM (inactive).

What about the GI50 (SW-620) of the same compound?
The GI50 was 11 µM (inactive).

What about the GI50 (OVCAR-8) of the same compound?
Its GI50 is 15.3 µM (inactive).

Which GI50 (COLO 205) does the source give for N[C@@H]1c2c(Br)sc(Br)c2[C@H](O)[C@@H]1O here?
The GI50 was > 100 µM (inactive).

What about the GI50 (A498) of the same compound?
Its GI50 is > 100 µM (inactive).

And the GI50 (MDA-MB-231)?
Its GI50 is > 100 µM (inactive).

What about the GI50 (Malme-3M) of the same compound?
Its GI50 is > 100 µM (inactive).

And the GI50 (SN12C)?
The GI50 was > 100 µM (inactive).

And the GI50 (SK-MEL-2)?
The GI50 was > 100 µM (inactive).

What about the GI50 (SK-MEL-28) of the same compound?
The GI50 was > 100 µM (inactive).

And the GI50 (NCI-H226)?
The GI50 was > 100 µM (inactive).

And the GI50 (HCT-15)?
The GI50 was > 100 µM.

What about the GI50 (UACC-62) of the same compound?
The GI50 was > 100 µM (inactive).

What about the GI50 (UO-31) of the same compound?
Its GI50 is > 100 µM (inactive).

What about the GI50 (HCT-116) of the same compound?
Its GI50 is > 100 µM (inactive).

And the GI50 (HCC 2998)?
The GI50 was > 100 µM (inactive).

And the GI50 (MDA-MB-435)?
Its GI50 is > 100 µM (inactive).

And the GI50 (OVCAR-5)?
Its GI50 is > 100 µM (inactive).

What about the GI50 (SF-268) of the same compound?
Its GI50 is > 100 µM (inactive).

What about the GI50 (NCI-H522) of the same compound?
The GI50 was > 100 µM (inactive).

What about the GI50 (SF-295) of the same compound?
The GI50 was > 100 µM (inactive).

What about the GI50 (PC-3) of the same compound?
The GI50 was > 100 µM (inactive).

What about the GI50 (OVCAR-4) of the same compound?
The GI50 was > 100 µM (inactive).

What about the GI50 (NCI-H460) of the same compound?
The GI50 was > 100 µM (inactive).

And the GI50 (786-0)?
Its GI50 is > 100 µM (inactive).

And the GI50 (DU-145)?
Its GI50 is > 100 µM (inactive).

And the GI50 (OVCAR-3)?
Its GI50 is > 100 µM (inactive).

What about the GI50 (KM12) of the same compound?
The GI50 was > 100 µM (inactive).

What about the GI50 (A549) of the same compound?
Its GI50 is > 100 µM (inactive).

And the GI50 (IGROV-1)?
Its GI50 is > 100 µM (inactive).

And the GI50 (SK-OV-3)?
The GI50 was > 100 µM (inactive).

What about the GI50 (LOX IMVI) of the same compound?
The GI50 was > 100 µM (inactive).

And the GI50 (TK-10)?
The GI50 was > 100 µM (inactive).

And the GI50 (Hs-578T)?
Its GI50 is > 100 µM (inactive).

What about the GI50 (HT-29) of the same compound?
Its GI50 is > 100 µM (inactive).

And the GI50 (K562)?
Its GI50 is > 100 µM (inactive).

What about the GI50 (ACHN) of the same compound?
Its GI50 is > 100 µM (inactive).

What about the GI50 (EKVX) of the same compound?
The GI50 was > 100 µM (inactive).

And the GI50 (HOP-92)?
The GI50 was > 100 µM (inactive).

What about the GI50 (UACC-257) of the same compound?
Its GI50 is > 100 µM (inactive).

And the GI50 (RXF 393)?
The GI50 was > 100 µM (inactive).

And the GI50 (NCI/ADR-RES)?
Its GI50 is > 100 µM (inactive).

What about the GI50 (MDA-N) of the same compound?
Its GI50 is > 100 µM (inactive).

What about the GI50 (U-251) of the same compound?
The GI50 was > 100 µM (inactive).

And the GI50 (SK-MEL-5)?
The GI50 was > 100 µM (inactive).

What about the GI50 (SNB-75) of the same compound?
The GI50 was > 100 µM (inactive).

And the GI50 (NCI-H23)?
Its GI50 is > 100 µM (inactive).

And the GI50 (M14)?
Its GI50 is > 100 µM (inactive).

And the GI50 (SNB-19)?
The GI50 was > 100 µM (inactive).

What about the GI50 (CCRF-CEM) of the same compound?
Its GI50 is > 100 µM (inactive).

What about the GI50 (T47D) of the same compound?
Its GI50 is > 100 µM (inactive).

And the GI50 (SF-539)?
Its GI50 is > 100 µM (inactive).

What about the GI50 (HL-60) of the same compound?
Its GI50 is > 100 µM (inactive).

What about the GI50 (MOLT-4) of the same compound?
The GI50 was > 100 µM (inactive).

And the GI50 (BT-549)?
Its GI50 is > 100 µM (inactive).

And the GI50 (MCF7)?
Its GI50 is > 100 µM (inactive).

And the GI50 (CAKI-1)?
The GI50 was > 100 µM (inactive).

What about the GI50 (SW-620) of the same compound?
Its GI50 is > 100 µM (inactive).

And the GI50 (OVCAR-8)?
Its GI50 is > 100 µM (inactive).
